Source: the NIST ThermoML archive (doi:10.1016/j.jct.2004.10.011)

Experiment: xn = mol fraction of the nth substance listed
Conditions: Liquid, Vibrating tube method

CCC(=O)c1ccccc1 [ethyl phenyl ketone] + Cc1ccccc1
mass density [kg/m3]
Conditions | x2 = 0 | x2 = 0.1048 | x2 = 0.2025 | x2 = 0.3006 | x2 = 0.3991 | x2 = 0.4998 | x2 = 0.6004 | x2 = 0.7036 | x2 = 0.8028 | x2 = 0.902
298.15 K, 100 kPa | 1005.3 | 993.5 | 982.2 | 970.2 | 957.5 | 943.76 | 929.02 | 913.4 | 897.3 | 880.1
298.15 K, 2130 kPa | 1006.4 | 994.6 | 983.3 | 971.3 | 958.6 | 944.95 | 930.27 | 914.7 | 898.6 | 881.5
298.15 K, 4150 kPa | 1007.5 | 995.8 | 984.5 | 972.6 | 959.9 | 946.25 | 931.61 | 916 | 900 | 882.9
298.15 K, 6180 kPa | 1008.7 | 996.9 | 985.7 | 973.8 | 961.2 | 947.55 | 932.93 | 917.4 | 901.4 | 884.4
298.15 K, 8210 kPa | 1009.8 | 998.1 | 986.9 | 975 | 962.4 | 948.81 | 934.23 | 918.7 | 902.8 | 885.8
298.15 K, 10230 kPa | 1010.9 | 999.2 | 988 | 976.1 | 963.6 | 950.05 | 935.53 | 920 | 904.2 | 887.2
298.15 K, 11250 kPa | 1011.5 | 999.8 | 988.6 | 976.7 | 964.2 | 950.67 | 936.16 | 920.7 | 904.8 | 887.9
298.15 K, 12260 kPa | 1012.1 | 1000.3 | 989.2 | 977.3 | 964.8 | 951.26 | 936.78 | 921.3 | 905.5 | 888.6
298.15 K, 14290 kPa | 1013.2 | 1001.5 | 990.3 | 978.5 | 966 | 952.5 | 938.05 | 922.6 | 906.8 | 890
298.15 K, 16310 kPa | 1014.3 | 1002.6 | 991.4 | 979.6 | 967.1 | 953.69 | 939.26 | 923.8 | 908.1 | 891.3
298.15 K, 18340 kPa | 1015.3 | 1003.7 | 992.5 | 980.7 | 968.3 | 954.88 | 940.49 | 925.1 | 909.4 | 892.6
298.15 K, 20370 kPa | 1016.4 | 1004.8 | 993.6 | 981.8 | 969.4 | 956.04 | 941.68 | 926.3 | 910.7 | 893.9
298.15 K, 22390 kPa | 1017.5 | 1005.8 | 994.7 | 983 | 970.5 | 957.19 | 942.87 | 927.5 | 911.9 | 895.2
298.15 K, 24420 kPa | 1018.5 | 1006.9 | 995.8 | 984 | 971.7 | 958.35 | 944.05 | 928.7 | 913.1 | 896.5
298.15 K, 26450 kPa | 1019.5 | 1007.9 | 996.8 | 985.1 | 972.7 | 959.45 | 945.21 | 929.9 | 914.3 | 897.8
298.15 K, 28470 kPa | 1020.5 | 1009 | 997.9 | 986.2 | 973.8 | 960.58 | 946.36 | 931.1 | 915.5 | 899
298.15 K, 29490 kPa | 1021 | 1009.5 | 998.4 | 986.7 | 974.3 | 961.14 | 946.92 | 931.7 | 916.1 | 899.6
298.15 K, 30500 kPa | 1021.6 | 1010 | 998.9 | 987.2 | 974.9 | 961.68 | 947.48 | 932.2 | 916.7 | 900.2
298.15 K, 32530 kPa | 1022.5 | 1011 | 999.9 | 988.3 | 976 | 962.77 | 948.6 | 933.4 | 917.9 | 901.4
298.15 K, 34550 kPa | 1023.5 | 1012 | 1000.9 | 989.3 | 977 | 963.83 | 949.68 | 934.5 | 919 | 902.6
298.15 K, 36580 kPa | 1024.5 | 1013 | 1001.9 | 990.3 | 978 | 964.89 | 950.78 | 935.6 | 920.2 | 903.8
298.15 K, 38600 kPa | 1025.5 | 1013.9 | 1002.9 | 991.3 | 979 | 965.93 | 951.82 | 936.7 | 921.2 | 904.9
298.15 K, 39620 kPa | 1025.9 | 1014.4 | 1003.4 | 991.8 | 979.6 | 966.46 | 952.38 | 937.2 | 921.8 | 905.2
308.15 K, 100 kPa | 996.8 | 984.8 | 973.6 | 961.5 | 948.7 | 934.98 | 920.13 | 904.3 | 888.2 | 871
308.15 K, 2130 kPa | 998 | 986 | 974.8 | 962.8 | 950 | 936.3 | 921.52 | 905.8 | 889.7 | 872.5
308.15 K, 4150 kPa | 999.2 | 987.3 | 976.1 | 964.1 | 951.3 | 937.68 | 922.91 | 907.2 | 891.1 | 874.1
308.15 K, 6180 kPa | 1000.4 | 988.5 | 977.3 | 965.3 | 952.6 | 939.04 | 924.29 | 908.7 | 892.6 | 875.6
308.15 K, 8210 kPa | 1001.6 | 989.7 | 978.5 | 966.6 | 953.9 | 940.34 | 925.65 | 910.1 | 894 | 877.1
308.15 K, 10230 kPa | 1002.8 | 990.9 | 979.8 | 967.8 | 955.2 | 941.64 | 927 | 911.4 | 895.5 | 878.6
308.15 K, 11250 kPa | 1003.4 | 991.5 | 980.4 | 968.4 | 955.7 | 942.3 | 927.66 | 912.1 | 896.2 | 879.3
308.15 K, 12260 kPa | 1003.9 | 992.1 | 981 | 969 | 956.4 | 942.94 | 928.33 | 912.8 | 896.9 | 880
308.15 K, 14290 kPa | 1005.1 | 993.3 | 982.2 | 970.3 | 957.6 | 944.22 | 929.64 | 914.1 | 898.3 | 881.5
308.15 K, 16310 kPa | 1006.2 | 994.4 | 983.3 | 971.4 | 958.9 | 945.46 | 930.91 | 915.4 | 899.6 | 882.9
308.15 K, 18340 kPa | 1007.3 | 995.5 | 984.5 | 972.6 | 960 | 946.72 | 932.19 | 916.8 | 901 | 884.3
308.15 K, 20370 kPa | 1008.4 | 996.7 | 985.6 | 973.8 | 961.2 | 947.92 | 933.45 | 918 | 902.3 | 885.6
308.15 K, 22390 kPa | 1009.5 | 997.8 | 986.7 | 974.9 | 962.4 | 949.14 | 934.71 | 919.3 | 903.6 | 887
308.15 K, 24420 kPa | 1010.6 | 998.9 | 987.8 | 976 | 963.6 | 950.33 | 935.93 | 920.6 | 904.9 | 888.3
308.15 K, 26450 kPa | 1011.7 | 1000 | 988.9 | 977.2 | 964.7 | 951.5 | 937.14 | 921.8 | 906.2 | 889.7
308.15 K, 28470 kPa | 1012.8 | 1001 | 990 | 978.3 | 965.9 | 952.65 | 938.32 | 923 | 907.4 | 891
308.15 K, 29490 kPa | 1013.2 | 1001.6 | 990.6 | 978.8 | 966.4 | 953.24 | 938.92 | 923.6 | 908 | 891.6
308.15 K, 30500 kPa | 1013.8 | 1002.1 | 991.1 | 979.4 | 967 | 953.82 | 939.51 | 924.2 | 908.7 | 892.2
308.15 K, 32530 kPa | 1014.8 | 1003.2 | 992.2 | 980.5 | 968.1 | 954.96 | 940.68 | 925.4 | 909.9 | 893.5
308.15 K, 34550 kPa | 1015.8 | 1004.2 | 993.2 | 981.5 | 969.2 | 956.07 | 941.83 | 926.6 | 911.1 | 894.7
308.15 K, 36580 kPa | 1016.8 | 1005.2 | 994.3 | 982.6 | 970.2 | 957.16 | 942.97 | 927.7 | 912.3 | 896
308.15 K, 38600 kPa | 1017.9 | 1006.2 | 995.3 | 983.6 | 971.3 | 958.24 | 944.07 | 928.9 | 913.4 | 897.2
308.15 K, 39620 kPa | 1018.3 | 1006.7 | 995.8 | 984.1 | 971.9 | 958.83 | 944.64 | 929.5 | 914 | 897.8
